One series deals with PDE9 (Homo sapiens (Human), UniProt O76083). Briefly: PDE9-inhibiting activity (SPA enzyme assay). The format is biochemical. The following applies: IC50 values; cGMP 1 μM substrate, 30° C.; read-out: PDE9 inhibition. The protocol:
The PDE9-inhibiting activity was measured by the following method. That is, to a buffer solution containing tris(hydroxymethyl)aminomethane-hydrochloric acid (40 mM, pH 8.0), magnesium chloride (5 mM), and 2-mercaptoethanol (4 mM) were added cGMP (1 μM) and ^3H-cGMP (0.33 μCi/ml) to give a substrate buffer solution. A test substance solution and an enzyme solution which had been adjusted to an optimal concentration were added thereto to perform a reaction at 30° C. The enzyme reaction was stopped by the addition of Scintillation Proximity Assay (SPA) Beads (Perkin Elmer, USA) containing 5 mM 3-isobutyl-1-methylxanthine (IBMX). For the enzyme activity, the amount of 5′-GMP, which is a reaction degradation product bound to SPA beads, was measured with a TopCount microplate reader (Hewlett Packard, USA). The inhibitory rate was calculated by taking the radioactivity of the control containing no test substance as (A), taking the radioactivity of the blank containing no enzyme as (B), and taking the radioactivity of the test substance as (C), and using the following equation.

For series [1], the system named is urethra relaxation response. Briefly: Simultaneous measurement model for rat bladder contraction/urethra relaxation responses. The format is in vivo. The settings on record: female SD rat, increase relative to the solvent administration group, read-out: Ratio with increased urethra relaxation time during voiding (vs vehicle) (%). The protocol: Simultaneous measurement of the bladder contraction and urethra relaxation responses using a rat was carried out with a partial modification of a method in Wibberley et al. (Wibberley, A., et al., Br. J. Pharmacol., 136: pp. 399-414 (2002)). That is, a female Sprague-Dawley (SD) rat (Charles River Laboratories Japan, Inc.) was anesthetized with urethane, and the bladder was exposed by a midline incision in the lower abdomen. A double lumen cannula (a cannula having a dual structure by PE190 and PE50) from the bladder apex was inserted into the bladder, and the bladder apex and the cannula were fixed by sutures at a point where the tip reached the proximal urethra. While infusing physiological saline into the urethra through the outer cannula, the urethral inner pressure was measured by a pressure transducer through the inner cannula with a saline solution infused into the urethra through the outer cannula. On the other hand, a single cannula (PESO) was inserted into the bladder from the bladder apex and placed therein. The inner pressure of the bladder was measured through this cannula. After a postoperative stabilization period had passed, physiological saline was infused into the bladder through the cannula of the bladder apex to cause a bladder contraction reaction, and thus cause a urethra relaxation response accompanying the bladder contraction reflex. The test substance was administered intravenously or intraduodenally.

As usually defined, the melting point is the temperature, or range, at which the solid turns liquid.

Where a name gives a salt, the structure may show the parent alone.

PDE9, sequence (O76083 whole entry): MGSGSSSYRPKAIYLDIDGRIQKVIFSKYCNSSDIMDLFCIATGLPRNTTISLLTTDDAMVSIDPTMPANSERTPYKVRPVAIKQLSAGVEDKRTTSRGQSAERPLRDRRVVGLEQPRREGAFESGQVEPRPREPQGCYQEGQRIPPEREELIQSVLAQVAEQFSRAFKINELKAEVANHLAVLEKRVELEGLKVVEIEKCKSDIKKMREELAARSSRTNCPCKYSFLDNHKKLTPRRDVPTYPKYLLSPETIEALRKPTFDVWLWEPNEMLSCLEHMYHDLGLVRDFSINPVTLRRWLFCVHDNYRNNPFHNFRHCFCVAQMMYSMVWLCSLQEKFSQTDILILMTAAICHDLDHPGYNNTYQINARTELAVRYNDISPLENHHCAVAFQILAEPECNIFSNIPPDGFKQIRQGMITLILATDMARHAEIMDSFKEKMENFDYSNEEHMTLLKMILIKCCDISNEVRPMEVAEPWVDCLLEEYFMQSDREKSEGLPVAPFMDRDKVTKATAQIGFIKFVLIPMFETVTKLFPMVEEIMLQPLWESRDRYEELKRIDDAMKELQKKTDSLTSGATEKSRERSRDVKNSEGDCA

Molecule `Cc1cc2[nH]c(=O)c3cnn(C4CCOCC4)c3c2cc1C(=O)N1CCN(Cc2cccnc2)CC1` (as salt: hydrochloride) [Example 2, 7-methyl-8-{[4-(pyridin-3-ylmethyl)piperazin-1-yl]carbonyl}-1-(tetrahydro-2H-pyran-4-yl)-1,5-dihydro-4H-pyrazolo[4,3-c]quinolin-4-one dihydrochloride] gave a melting point of 259 to 263 °C.

As to `O=C(c1ccc2c(c1)[nH]c(=O)c1cnn(C3CCCC3)c12)N1CCc2cc(Cl)ccc21` [Example 1, 7-[(5-chloro-2,3-dihydro-1H-indol-1-yl)carbonyl]-1-cyclopentyl-1,5-dihydro-4H-pyrazolo[4,3-c]quinolin-4-one], the melting point lay within 291 to 294 °C. At PDE9, the IC50 is 18 nM.

The molecule `O=C(c1ccc2c(c1)[nH]c(=O)c1cnn(C3CCOCC3)c12)N1CCCC(c2ccccc2)C1` (centres unmarked) [Example 11] showed a melting point of 298 to 301 °C. Take `O=C(c1ccc2c(c1)[nH]c(=O)c1cnn(C3CCOCC3)c12)N1CCc2cc(Cl)ccc21` [Example 12]: the melting point was 341 to 343 °C. Besides, the IC50 at PDE9 came out at 8.6 nM. On the same counts, the results for `CN1CCN(C(=O)c2ccc3c(c2)[nH]c(=O)c2cnn(C4CCOCC4)c23)CC1c1ccccc1` (centres unmarked) [Example 13] are 183 to 186 °C and 85 nM. On the same counts, the results for `O=C(c1ccc2c(c1)[nH]c(=O)c1cnn(C3CCOCC3)c12)N1CCOC(c2ccc(F)cc2)C1` (centres unmarked) [Example 14] are 293 to 296 °C and 81 nM.

For `COc1cc2c(cn1)N(C(=O)c1ccc3c(c1)[nH]c(=O)c1cnn(C4CCOCC4)c13)CC2` [Example 15], the melting point fell in the range of 337 to 340 °C. With `Cc1cc2[nH]c(=O)c3cnn(C4CCOCC4)c3c2cc1C(=O)N1CCC2(CCN(Cc3ccccc3)CC2)CC1` [Example 16], the melting point was 221 to 224 °C. Also, at PDE9, the IC50 turned out to be 9.1 nM. Regarding `Cc1cc2[nH]c(=O)c3cnn(C4CCOCC4)c3c2cc1C(=O)N1CCN(c2ccccn2)CC1` [Example 17], the melting point lay in the range of 272 to 275 °C. The IC50 on PDE9 came out at 2.1 nM. For `Cc1nn(C2CCCC2)c2c1c(=O)[nH]c1cc(C(=O)N3CCc4cc(F)ccc43)ccc12` [Example 18], the melting point lay in the range of 321 to 323 °C. For `O=C(c1ccc2c(c1)[nH]c(=O)c1cnn(C3CCOCC3)c12)N1Cc2cccc(F)c2C1` [Example 19], the melting point is 312 to 318 °C (dec.). With `O=C(c1ccc2c(c1)[nH]c(=O)c1cnn(C3CCOCC3)c12)N1CCOC(c2ccccc2F)C1` (centres unmarked) [Example 20], the melting point lay in the range of 174 to 176 °C. Regarding `Cc1cc2[nH]c(=O)c3cnn(C4CCOCC4)c3c2cc1C(=O)N1CCN(C)C(c2ccccc2)C1` (centres unmarked) [Example 21], the melting point was 253 to 256 °C. Consider `COCC1CCN(C(=O)c2cc3c(cc2C)[nH]c(=O)c2cnn(C4CCOCC4)c23)CC1.Cl` [Example 28], for which the melting point was in the range of 253 to 255 °C. In addition, the IC50 on PDE9 is 9.1 nM. For `CCOC1CCN(C(=O)c2cc3c(cc2C)[nH]c(=O)c2cnn(C4CCOCC4)c23)CC1` [Example 40], the IC50 on PDE9 is 8.9 nM. The response vs control in vivo at 1 mg/kg in series [1] was 138%. `COCCN1CCN(C(=O)c2cc3c(cc2C)[nH]c(=O)c2cnn(C4CCOCC4)c23)C[C@@H]1c1ccccc1` [Example 47]: the melting point was in the range of 218 to 220 °C. Still for that read-out and setting: as for `Cc1cc2[nH]c(=O)c3cnn(C4CCOCC4)c3c2cc1C(=O)N1CCOC(c2cccnc2)C1` (centres unmarked) [Example 48], the figure is 266 to 268 °C. `Cc1cc2[nH]c(=O)c3cnn(C4CCOCC4)c3c2cc1C(=O)N1CCN(C)C(c2cccnc2)C1` (centres unmarked) [Example 49]: the melting point lay in the range of 255 to 257 °C. Besides, the IC50 on PDE9 was 3.9 nM.

Regarding `Cc1cc2[nH]c(=O)c3cnn(C4CCC4)c3c2cc1C(=O)N1CCN(CC2CCOCC2)CC1` [Example 55], the IC50 on PDE9 stood at 15 nM. Moreover, the response vs control in vivo at 1 mg/kg in series [1] stood at 166%. As to `CCOCC1CCN(C(=O)c2cc3c(cc2C)[nH]c(=O)c2cnn(C4CCOCC4)c23)CC1` [Example 56], the IC50 at PDE9 was 4.4 nM. For the same molecule, the response vs control in vivo at 1 mg/kg in series [1] was determined as 158%. Regarding `Cc1cc2[nH]c(=O)c3cnn(C4CCOCC4)c3c2cc1C(=O)N1CCN(CCCc2cccnc2)CC1` [Example 57], the melting point fell in the range of 254 to 256 °C. On the same count and under the same terms, as for `Cc1cc2[nH]c(=O)c3cnn(C4CCCC4)c3c2cc1C(=O)N1CCN(C2CCOCC2)CC1` [Example 58], the figure is 263 to 265 °C. `CCOCCCN1CCN(C(=O)c2cc3c(cc2C)[nH]c(=O)c2cnn(C4CCOCC4)c23)CC1` [Example 63]: the melting point fell in the range of 217 to 219 °C. Further, the IC50 at PDE9 was 8.4 nM.

Take `Cc1cc2[nH]c(=O)c3cnn(C4CCOCC4)c3c2cc1C(=O)N1CCN(CCCOC(C)C)CC1` [Example 64]: the melting point fell in the range of 122 to 124 °C. The molecule `COCCC1CCN(C(=O)c2cc3c(cc2C)[nH]c(=O)c2cnn(C4CCOCC4)c23)CC1` [Example 66] displayed a melting point of 241 to 242 °C. Further, the IC50 at PDE9 was 4.3 nM.

With `COCCCCN1CCN(C(=O)c2cc3c(cc2C)[nH]c(=O)c2cnn(C4CCCC4)c23)CC1` [Example 67], the melting point is 234 to 236 °C.

Molecule `Cc1cc2[nH]c(=O)c3cnn(C4CCOCC4)c3c2cc1C(=O)N1CCN(CCCOC(C)(C)C)CC1` [Example 77] yielded a melting point of 238 to 240 °C. `CCOCC1CN(C(=O)c2cc3c(cc2C)[nH]c(=O)c2cnn(C4CCOCC4)c23)C1` [Example 86]: the melting point is 226 to 228 °C. Besides, the IC50 at PDE9 amounted to 3.3 nM.

Consider `COCCCCN1CCN(C(=O)c2cc3c(cc2C)[nH]c(=O)c2cnn(CC4CCC4)c23)CC1` [Example 90], for which the melting point lay within 178 to 180 °C.

`CCN1CCN(C(=O)c2cc3c(cc2C)[nH]c(=O)c2cnn(C4CCOCC4)c23)CC1c1cccnc1` (centres unmarked) [Example 91]: the melting point was in the range of 272 to 274 °C. The same measure, in the same setting: as for `COCCCN1CCN(C(=O)c2cc3c(cc2C)[nH]c(=O)c2cnn(CC4CCC4)c23)CC1` [Example 97], the figure is 186 to 188 °C. Take `COCCCCN1CCN(C(=O)c2cc3c(cc2C)[nH]c(=O)c2cnn(CC4CC4)c23)CC1.Cl` [Example 103]: the melting point lay in the range of 207 to 208 °C. Besides, the IC50 at PDE9 is 13 nM. The corresponding values for `COCC(F)(F)CN1CCN(C(=O)c2cc3c(cc2C)[nH]c(=O)c2cnn(C4CCOCC4)c23)CC1` [Example 133] are 212 to 213 °C and 8.3 nM.

In turn, `Cc1cc2[nH]c(=O)c3cnn(C4CCOCC4)c3c2cc1C(=O)N1CCC(OCC(C)(F)F)CC1` [Example 176] came in with a melting point of 210 to 211 °C. Also, the IC50 at PDE9 is 8.4 nM.

Take `Cc1cc2[nH]c(=O)c3cnn(C4CCOCC4)c3c2cc1C(=O)N1CCC(OC[C@@H](C)F)CC1` [Example 177]: the melting point fell in the range of 205 to 206 °C. Also, the IC50 on PDE9 was determined as 9.7 nM. Regarding `Cc1cc2[nH]c(=O)c3cnn(C4CCOCC4)c3c2cc1C(=O)N1CCC(COC2CC2)CC1` [Example 217], the melting point lay within 210 to 211 °C. Besides, on PDE9, the IC50 came to 4.4 nM. On the same counts, the results for `Cc1cc2[nH]c(=O)c3cnn([C@H]4CCOC4)c3c2cc1C(=O)N1CCC(OC2CC2)CC1` [Example 218] are 197 to 198 °C and 17 nM. As for `Cc1cc2[nH]c(=O)c3cnn(C4CCOCC4)c3c2cc1C(=O)N1CCN(C2CCCC2)CC1` [Example 255], the melting point is 228 to 230 °C. With `Cc1cc2[nH]c(=O)c3cnn(C4CCOCC4)c3c2cc1C(=O)N1CCN(CC(F)(F)F)CC1` [Example 427], on PDE9, the IC50 stood at 20 nM. With `COCCCN1CCN(C(=O)c2cc3c(cc2C)[nH]c(=O)c2cnn(C4CCC(F)(F)CC4)c23)C[C@@H]1C` [Example 624], the IC50 at PDE9 came out at 10 nM. The same measure, in the same setting: the value for `COCCCN1CCN(C(=O)c2cc3c(cc2C)[nH]c(=O)c2cnn(CC4CC4)c23)C[C@@H]1C` [Example 640] was 3.3 nM; that for `COCCCN1CCN(C(=O)c2cc3c(cc2C)[nH]c(=O)c2cnn(CC4CCC4)c23)C[C@@H]1C` [Example 648] was 2 nM.

Turning to `COCCCN1CCN(C(=O)c2cc3c(cc2C)[nH]c(=O)c2cnn(C4CCCC4)c23)C[C@@H]1C` [Example 655], the IC50 at PDE9 turned out to be 4.7 nM. On the same count and under the same terms, the value for `CCOCCCCN1CCN(C(=O)c2cc3c(cc2C)[nH]c(=O)c2cnn([C@H]4CCOC4)c23)CC1` [Example 660] was 28 nM; that for `COCCC1CCN(C(=O)c2cc3c(cc2C)[nH]c(=O)c2cnn([C@H]4CCOC4)c23)CC1` [Example 668] was 9.8 nM.

Values taken from patent US8822448B2, “Pyrazoloquinoline compound” (Astellas Pharma Inc., priority 2010, dated 2014).
